The text below walks through data of patent US20040002141A1, “Methods and compositions for propagating vectors containing toxic cDNAs and ion channel assay systems” (priority 2002, published 2004).

Each structure is given as a SMILES string.

One assay has as its target T1, αβγENaC channels (Rattus norvegicus, UniProt P37089+P37090+P37091).
T1 sequence (P37089 1-698): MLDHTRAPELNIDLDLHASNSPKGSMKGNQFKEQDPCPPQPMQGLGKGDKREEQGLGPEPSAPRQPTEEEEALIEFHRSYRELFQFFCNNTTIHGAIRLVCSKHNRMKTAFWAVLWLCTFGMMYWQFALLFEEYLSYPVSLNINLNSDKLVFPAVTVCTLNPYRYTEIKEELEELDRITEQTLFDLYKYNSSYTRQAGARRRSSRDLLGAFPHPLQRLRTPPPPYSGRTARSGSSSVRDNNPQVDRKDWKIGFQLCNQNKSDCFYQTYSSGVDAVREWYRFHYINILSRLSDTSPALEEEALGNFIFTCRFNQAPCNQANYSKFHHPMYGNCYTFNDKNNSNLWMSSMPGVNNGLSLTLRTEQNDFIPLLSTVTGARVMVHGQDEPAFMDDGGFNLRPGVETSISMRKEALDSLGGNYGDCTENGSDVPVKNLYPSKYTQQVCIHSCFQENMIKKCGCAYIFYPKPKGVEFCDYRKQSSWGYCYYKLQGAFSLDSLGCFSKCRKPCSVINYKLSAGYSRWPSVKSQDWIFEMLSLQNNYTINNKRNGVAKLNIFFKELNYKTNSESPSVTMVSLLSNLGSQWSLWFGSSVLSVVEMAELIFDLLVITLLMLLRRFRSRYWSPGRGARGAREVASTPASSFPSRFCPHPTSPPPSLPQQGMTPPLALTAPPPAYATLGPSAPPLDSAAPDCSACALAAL
T1 sequence (P37090 1-638): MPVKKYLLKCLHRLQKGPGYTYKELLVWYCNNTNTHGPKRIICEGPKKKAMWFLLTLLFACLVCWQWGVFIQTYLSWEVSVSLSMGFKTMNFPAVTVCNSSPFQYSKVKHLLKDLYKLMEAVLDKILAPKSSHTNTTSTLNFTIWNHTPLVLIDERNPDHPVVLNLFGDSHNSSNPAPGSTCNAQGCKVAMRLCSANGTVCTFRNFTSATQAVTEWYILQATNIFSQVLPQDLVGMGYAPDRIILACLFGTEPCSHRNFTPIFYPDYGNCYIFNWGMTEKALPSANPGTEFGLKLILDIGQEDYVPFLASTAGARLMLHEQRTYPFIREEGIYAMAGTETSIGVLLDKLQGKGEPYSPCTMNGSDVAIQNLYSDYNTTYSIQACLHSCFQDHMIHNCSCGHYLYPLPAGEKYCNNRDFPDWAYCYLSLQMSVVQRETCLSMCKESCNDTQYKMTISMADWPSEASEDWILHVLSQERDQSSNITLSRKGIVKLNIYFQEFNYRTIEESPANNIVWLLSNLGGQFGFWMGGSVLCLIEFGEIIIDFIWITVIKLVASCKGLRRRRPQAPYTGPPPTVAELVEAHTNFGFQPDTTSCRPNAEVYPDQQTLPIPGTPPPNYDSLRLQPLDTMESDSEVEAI
T1 sequence (P37091 1-650): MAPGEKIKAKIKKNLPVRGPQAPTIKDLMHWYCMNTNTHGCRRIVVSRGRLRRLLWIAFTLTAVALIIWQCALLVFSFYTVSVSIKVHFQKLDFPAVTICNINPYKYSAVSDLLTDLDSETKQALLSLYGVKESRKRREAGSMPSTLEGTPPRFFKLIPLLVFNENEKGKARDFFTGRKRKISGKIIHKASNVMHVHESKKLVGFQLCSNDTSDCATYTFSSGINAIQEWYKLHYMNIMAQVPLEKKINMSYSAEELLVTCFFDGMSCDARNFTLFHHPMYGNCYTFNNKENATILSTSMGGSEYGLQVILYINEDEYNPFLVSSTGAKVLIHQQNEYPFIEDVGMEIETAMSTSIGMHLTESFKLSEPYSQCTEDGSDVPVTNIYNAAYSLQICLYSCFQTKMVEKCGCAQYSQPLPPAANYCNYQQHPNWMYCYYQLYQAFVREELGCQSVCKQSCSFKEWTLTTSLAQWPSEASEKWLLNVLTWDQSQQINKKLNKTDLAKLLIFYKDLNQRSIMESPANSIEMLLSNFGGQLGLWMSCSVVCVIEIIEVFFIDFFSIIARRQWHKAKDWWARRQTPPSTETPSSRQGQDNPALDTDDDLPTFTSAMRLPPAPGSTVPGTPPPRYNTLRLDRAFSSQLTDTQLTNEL
Particulars: McNicholas and Canessa, 1997; cited from earlier work.

The test system of another assay is UNC-105d. Particulars: García-Añoveros et al., 1998; cited from earlier work.
The target in another assay is T2, MEC-4d and MEC-2 (Caenorhabditis elegans, UniProt P24612, A713T).
T2 construct: Plasmids containing full-length degenerin cDNAs are toxic to standard E. coli strains; expressed in transfected cells; host or cells: Xenopus laevis oocytes injected with cRNA
T2 sequence (Q27433 whole entry): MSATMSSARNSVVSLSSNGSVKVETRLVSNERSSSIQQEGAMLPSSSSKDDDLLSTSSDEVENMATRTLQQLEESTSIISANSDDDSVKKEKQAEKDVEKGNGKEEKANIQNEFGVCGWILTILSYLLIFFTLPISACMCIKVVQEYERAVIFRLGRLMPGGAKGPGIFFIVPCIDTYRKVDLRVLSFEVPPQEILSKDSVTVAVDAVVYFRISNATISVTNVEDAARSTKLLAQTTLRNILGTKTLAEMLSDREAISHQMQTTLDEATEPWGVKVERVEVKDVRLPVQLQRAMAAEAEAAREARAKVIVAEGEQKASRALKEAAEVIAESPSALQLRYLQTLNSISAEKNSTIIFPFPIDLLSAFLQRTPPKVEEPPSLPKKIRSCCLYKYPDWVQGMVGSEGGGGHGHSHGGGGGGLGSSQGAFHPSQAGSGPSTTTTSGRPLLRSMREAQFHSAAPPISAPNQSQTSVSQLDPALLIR
T2 sequence (P24612 whole entry A713T): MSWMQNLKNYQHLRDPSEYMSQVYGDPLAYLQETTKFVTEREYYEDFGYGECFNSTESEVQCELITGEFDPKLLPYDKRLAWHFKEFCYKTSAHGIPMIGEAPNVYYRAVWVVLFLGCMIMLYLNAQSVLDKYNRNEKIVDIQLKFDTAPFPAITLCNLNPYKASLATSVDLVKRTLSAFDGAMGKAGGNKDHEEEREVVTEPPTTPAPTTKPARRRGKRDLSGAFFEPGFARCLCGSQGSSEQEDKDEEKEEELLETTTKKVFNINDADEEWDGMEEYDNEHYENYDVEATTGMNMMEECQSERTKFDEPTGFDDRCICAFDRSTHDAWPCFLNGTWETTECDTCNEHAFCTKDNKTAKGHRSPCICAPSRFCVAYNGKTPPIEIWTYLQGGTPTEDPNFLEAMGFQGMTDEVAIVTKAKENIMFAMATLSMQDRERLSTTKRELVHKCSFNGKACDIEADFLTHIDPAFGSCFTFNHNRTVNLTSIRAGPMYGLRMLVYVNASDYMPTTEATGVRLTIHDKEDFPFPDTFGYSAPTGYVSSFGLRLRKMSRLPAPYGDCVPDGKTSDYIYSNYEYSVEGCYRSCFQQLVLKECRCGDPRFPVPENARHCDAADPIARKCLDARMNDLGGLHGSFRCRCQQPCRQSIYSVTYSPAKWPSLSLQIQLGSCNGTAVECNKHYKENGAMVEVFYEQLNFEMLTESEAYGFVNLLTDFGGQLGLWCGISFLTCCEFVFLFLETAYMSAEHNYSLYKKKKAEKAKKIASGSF
As to the kind of experiment: Amiloride dose-response, two-electrode voltage clamp in Xenopus oocytes co-expressing MEC-4d and MEC-2. It counts as cell-based. Particulars: in the absence of MEC-10d; without MEC-2(114-363). As to the method:
(§1) Oocyte Expression & Electrophysiology. Capped RNAs (“cRNAs”) were synthesized (T7 mMESSAGE mMACHINE™ kit, Ambion, Austin, Tex.), purified, and quantified spectroscopically. Xenopus laevis oocytes were harvested and injected with 10 ng of each cRNA, except for oocytes co-expressing only MEC-4d and MEC-2(114-363), which were injected with 10 ng of the former and 20 ng of the latter. Oocytes were maintained in L-15 oocyte medium containing 100 μg/mL gentamicin (Cell & Molecular Technologies, Philipsburg, N.J.) at 16-18° C.
(§2) Membrane potential and current were measured 4-10 days after cRNA injection using a two-electrode voltage clamp (Warner OC-725C) at 22-25° C. […]
(§3) Analog signals were filtered at 200 Hz and sampled at 1-2 kHz (ITC-16, Instrutech, Great Neck, N.Y.); a 60 Hz notch filter was used to minimize line noise. Average values are reported as mean±S.E.M. Curves were fit by a nonlinear least-squares method (IgorPro 4.01, Wavemetrics, Oswego, Oreg.); the standard deviation measured at each point provided the weighting function. […] Relative permeabilities were calculated from the difference in reversal potential measured in solutions containing Na^+ and each test ion using the Goldman-Hodgkin-Katz equation (Hille, 2001, In: Ion Channels of Excitable Membranes, Sinaur Associates, Inc., Sunderland, Mass.).
A general note: In two-electrode clamp one electrode senses voltage and the other passes current.

Assay [1] has as its target T3, MEC-4d, MEC-10d and MEC-2 (Caenorhabditis elegans, UniProt P24612+P34886, A673T/A713T).
T3 construct: Plasmids containing full-length degenerin cDNAs are toxic to standard E. coli strains; expressed in transfected cells; host or cells: Xenopus laevis oocytes injected with cRNA
In words: Amiloride dose-response, two-electrode voltage clamp in Xenopus oocytes co-expressing MEC-4d, MEC-10d and MEC-2. Type of assay: cell-based. Particulars: in the presence of MEC-10d. As to the method: as §1, §2, §3

T3 sequence (P34886 whole entry A673T): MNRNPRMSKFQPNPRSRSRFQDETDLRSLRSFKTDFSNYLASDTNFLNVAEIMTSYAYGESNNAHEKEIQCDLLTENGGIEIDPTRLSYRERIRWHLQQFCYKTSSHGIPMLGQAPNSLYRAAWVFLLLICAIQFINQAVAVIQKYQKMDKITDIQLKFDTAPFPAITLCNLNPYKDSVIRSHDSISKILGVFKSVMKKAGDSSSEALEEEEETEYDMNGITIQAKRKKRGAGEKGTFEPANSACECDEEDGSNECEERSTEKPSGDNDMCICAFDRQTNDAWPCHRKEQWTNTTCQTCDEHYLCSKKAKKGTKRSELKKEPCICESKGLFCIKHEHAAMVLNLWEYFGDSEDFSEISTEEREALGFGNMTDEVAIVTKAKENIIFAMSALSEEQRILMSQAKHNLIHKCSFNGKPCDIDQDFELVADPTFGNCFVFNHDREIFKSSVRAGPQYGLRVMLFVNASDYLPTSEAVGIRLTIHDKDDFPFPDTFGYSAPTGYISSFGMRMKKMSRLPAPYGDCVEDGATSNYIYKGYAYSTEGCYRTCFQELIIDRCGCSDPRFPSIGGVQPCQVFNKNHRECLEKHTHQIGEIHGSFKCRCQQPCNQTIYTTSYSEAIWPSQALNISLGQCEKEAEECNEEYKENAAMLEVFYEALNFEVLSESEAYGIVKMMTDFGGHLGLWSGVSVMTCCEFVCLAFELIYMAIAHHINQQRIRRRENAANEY
T3 sequence (P24612 whole entry A713T): as the sequence (P24612 whole entry A713T) above

For the compound `N=C(N)NC(=O)c1nc(Cl)c(N)nc1N` [amiloride], the results for the “δ, voltage-dependence of amiloride blockade” value on αβγENaC channels and in the assay on UNC-105d were 0.15 and 0.65-0.68, respectively. Besides, the “δ, voltage-dependence of amiloride blockade (Woodhull model fit)” value on MEC-4d and MEC-2 was found to be 0.63; in assay [1] it was 0.52.
